Values quoted from earlier work, collected in paper PMC5686165, “Plant-to-plant communication triggered by systemin primes anti-herbivore resistance in tomato” (Scientific Reports, 2017).

Test system: A. ervi
Settings: tomato and A. ervi
Experimental: The possible biological relevance of the systemin-triggered priming was evaluated using three different types of source plants. […] The qualitative and quantitative differences in VOCs emissions were confirmed by PLSDA analysis and explain the effect on parasitoid attraction. Compared to R-S4, all receiver plants, after 24 hours of exposition to the t ...

C=C(C)CC(C)CCC (stereo not shown) [2,4-dimethyl-1-heptene]
elicitation of indirect defense in inter-specific plant-to-plant communication: powerful elicitor of indirect defense
